Data published in patent publication US10603357B2, “Therapeutic TREM-1 peptides” (Universite de Lorraine, priority 2004, dated 2020).

Tests used:
[1] = test system: BALB/c mice; experiment: LPS-induced endotoxinemia in mice (Example 3); format: in vivo, mouse; conditions: for Serum IL-1β / Serum TNF-α / Serum sTREM-1: endotoxemic mice, 100 μg
Method: P5 (50 μg or 100 μg) or control vector was administered 60 min before LPS.
P5 (75 μg) or control vector was administered 4 or 6 hours after LPS as indicated. […]
After approval by the local ethical committee, male Balb/C mice (20 to 23 g) were randomly grouped and treated with E. coli LPS intraperitoneally (i.p.) in combination with P5 (in 500 μl normal saline) or control vector before or after LPS challenge. In some experiments, 5 μg of an anti TREM-1 monoclonal antibody was administered i.p. one hour after LPS injection. The viability of mice was examined every hour, or animals were sacrificed at regular intervals. Serum samples were collected by cardiac puncture and assayed for TNF-α and IL-1β by ELISA (BD Biosciences), and for sTREM-1 levels by immunodot.

[2] = test system: BALB/c mice; experiment: CLP polymicrobial sepsis model in mice (Example 3); format: in vivo, mouse; conditions: for Serum IL-1β / Serum TNF-α / Serum sTREM-1: 24 hours after CLP
Method: Male Balb/C mice (20 to 23 g) were randomly grouped and treated with normal saline (n=14) or the control peptide (n=14, 100 μg) or with P5 (100 μg) in a single infection at HO (n=18), H+4 (n=18) or H+24 (n=18). The last group of mice (n=18) was treated with repeated injections of P5 (100 μg) at H+4, H+8 and H+24.
Mice (n=15 per group) were treated with a single injection of normal saline or 10 μg, 20 μg, 50 μg, 100 μg or 200 μg of P5 at HO after the CLP and monitored for survival.
Mice (5 per group) were killed under anaesthesia at 24 hours after CLP. Bacterial counts in peritoneal lavage fluid and blood were determined and results are expressed as CFU per mL of blood and CFU per mouse for the peritoneal lavage.
Male Balb/C mice (7 to 9 weeks, 20 to 23 g) were anaesthetized by i.p. administration of ketamine and xylazine in 0.2 mL sterile pyrogen-free saline. The caecum was exposed through a 1.0 cm abdominal midline incision and subjected to a ligation of the distal half followed by two punctures with a G21 needle. A small amount of stool was expelled from the punctures to ensure patency. The caecum was replaced into the peritoneal cavity and the abdominal incision closed in two layers. After surgery all mice were injected s.c. with 0.5 ml of physiologic saline solution for fluid resuscitation and s.c. every 12 h with 1.25 mg (i.e. 50 μg/g) of imipenem. The animals were randomly grouped and treated with normal saline (n=14), the control peptide (n=14, 100 μg) or P5 (100 μg) in a single injection at HO (n=18), H+4 (n=18) or H+24 (n=18). The last group of mice (n=18) was treated with repeated injections of P5 (100 μg) at H+4, H+8 and H+24. All treatments were diluted into 500 μl of normal saline and administered i.p. The Inventors next sought to determine the effect of various doses of P5. For this purpose, mice (n=15 per group) were treated with a single injection of normal saline or 10 μg, 20 μg, 50 μg 100 μg or 200 μg of P5 at HO after the CLP and monitored for survival. Five additional animals per group were killed under anaesthesia 24 hours after CLP for the determination of bacterial count and cytokines levels. Peritoneal lavage fluid was obtained using 2 mL RPMI 1640 (Life Technologies) and blood was collected by cardiac puncture. Concentrations of TNF-α and IL-1β in the serum were determined by ELISA (BD Biosciences). For the assessment of bacterial counts, blood and peritoneal lavage fluid were plated in serial log dilutions on tryptic soy supplemented with 5% sheep blood agar plates. After plating, tryptic soy agar plates were incubated at 37° C. aerobically for 24 hours, and anaerobically for 48 hours. Results are expressed as CFU per mL of blood and CFU per mouse for the peritoneal lavage.

[3] = pre-treatment by 100 μg, 2 and 4 hours

LQVTDSGLYRCVIYHPP [P5]
protection against LD100 dose of LPS, delayed treatment ([1]; 75 μg, delayed up to 4 hours after LPS): significant protection | clinical appearance of treated mice ([1]; LD100 of LPS): remained well groomed and active, had no diarrhoea, and were lively | late death over one week ([1]; LD100 of LPS): No late death occurred | Serum IL-1β ([1]; H2): 0.2 ± 0.1 ng/mL | Serum TNF-α ([1]; H2): 2.4 ± 0.5 ng/mL | Serum sTREM-1 ([1]; H2): 475 ± 37 ng/mL | Serum IL-1β ([1]; H4): 0.9 ± 0.2 ng/mL | Serum TNF-α ([1]; H4): 0.1 ± 0.1 ng/mL | Serum sTREM-1 ([1]; H4): 243 ± 28 ng/mL | increase of serum sTREM-1 levels compared to controls [1, 3]: 2 fold | reduction of serum cytokines levels compared to controls [1, 3]: 30% | protection from death ([1]; single dose (50 μg or 100 μg) 60 min before LD100 of LPS): prevented from death in a dose-dependent manner | effect on survival of repeated injections ([2]; 100 μg at H+4, H+8 and H+24 after CLP): more favourable effect on survival | Serum IL-1β ([2]; 10 μg at H0): 356 ± 62 pg/mL | Serum TNF-α ([2]; 10 μg at H0): 110 ± 11 pg/mL | Serum sTREM-1 ([2]; 10 μg at H0): 43 ± 8 ng/mL | Serum IL-1β ([2]; 20 μg at H0): 324 ± 58 pg/mL | Serum TNF-α ([2]; 20 μg at H0): 89 ± 10 pg/mL | Serum sTREM-1 ([2]; 20 μg at H0): 58 ± 8 ng/mL | Serum IL-1β ([2]; 50 μg at H0): 57 ± 11 pg/mL | Serum TNF-α ([2]; 50 μg at H0): 24 ± 6 pg/mL | Serum sTREM-1 ([2]; 50 μg at H0): 93 ± 10 ng/mL | Serum IL-1β ([2]; 100 μg at H0): 31 ± 3 pg/mL | Serum TNF-α ([2]; 100 μg at H0): 20 ± 3 pg/mL | Serum sTREM-1 ([2]; 100 μg at H0): 118 ± 12 ng/mL | Serum IL-1β ([2]; 200 μg at H0): 37 ± 8 pg/mL | Serum TNF-α ([2]; 200 μg at H0): 21 ± 7 pg/mL | Serum sTREM-1 ([2]; 200 μg at H0): 158 ± 13 ng/mL
